What follows are compounds tested on MM.1S cells (assay: Inhibitory effect on the proliferation of MM.1S, MTS cell viability test). Conditions: Homo sapiens, MM1.S, 168 h, multiple myeloma MM.1S cells, 7 days incubation, read-out: Tumor cell inhibitory activity.
Assay type: cell-based
Protocol: Method of tumor cell proliferation inhibition test: the inventors tested all the example compounds on hematologic tumor cells, multiple myeloma MMTs cell line and acute leukemia cell MV-4-11 cell line of some examples. The activity test method and results are as follows.
1. The Compound's Inhibitory Effect on the Proliferation of MM.1S, MTS Cell Viability Test:
MM.1S cells were cultured and collected with 1640 plus 10% fetal bovine serum. The cell concentration was diluted according to 7 days, and 180 ul cell suspension was added to each well of the 96-well cell plate to 20,000 cells. 20 ul of DMSO with a final concentration of 0.2% was added to the control wells. The compound was 5-fold diluted—from the 10 mM stock solution, and 20 ul was also added to each compound cell well (the final concentration of DMSO was 0.2%). The cells were placed in a 37° C., 5% CO2 incubator to incubate for 7 days. After the reaction solution was prepared according to the MTS kit (Promega, G5430), 20 μL was added to each well and incubated in a 37° C., 5% CO2 incubator for 3-4 h. Absorbance value at 490 nm was read with a microtiter plate, and 690 nm absorbance value was used as the background value. OD490-OD690 was used as the final initial data. The formula for calculating the inhibition rate of the compound is: inhibition rate=(ODDMSO-ODcompound)/(ODDMSO-Oblank)×100%. The compound's proliferation inhibition IC50 was fitted by Graph Pad Prism 5.0. The experiment was repeated three times, and the average and standard deviation was calculated according to the three parallel experiments.
Cell viability test results: **** represents cell viability IC50>20 μM, […] represents cell viability 1 μM<IC50<20 μM, ** represents cell viability 100 nM<IC50<1 μM, * represents cell viability IC50<100 nM.

| Structure (SMILES) | IC50 |
| --- | --- |
| N#Cc1ccc(N2CCN(CCCCc3cccc4c3CN(C3CCC(=O)NC3=O)C4=O)CC2)cc1 (stereo not drawn) [Example 36, 4-(4-(4-(2-(2,6-dioxopiperidine-3-)-1-oxoisoindoline-4-)butyl)piperazine-1-)benzonitrile] | < 100 nM |
| O=C1CCC(N2Cc3c(CCCCN4CCN(c5cccc(Cl)c5)CC4)cccc3C2=O)C(=O)N1 (stereo not drawn) [Example 37, 3-(4-(4-(4-(3-chlorophenyl)piperazine-1-)butyl)-1-oxoisoindoline-2-)piperidine-2,6-dione] | < 100 nM |
| N#Cc1ccccc1N1CCN(CCCCc2cccc3c2CN(C2CCC(=O)NC2=O)C3=O)CC1 (stereo not drawn) [Example 38, 2-(4-(4-(2-(2,6-dioxopiperidine-3-)-1-oxoisoindoline-4-)butyl)piperazine-1-)benzonitrile] | < 100 nM |
| O=C1CCC(N2Cc3c(CCCCN4CCN(c5ccc(F)cc5)CC4)cccc3C2=O)C(=O)N1 (stereo not drawn) [Example 39, 3-(4-(4-(4-(4-fluorophenyl)piperazine-1-)butyl)-1-oxoisoindoline-2-)piperidine-2,6-dione] | < 100 nM |
| Cc1cccc(N2CCN(CCCCc3cccc4c3CN(C3CCC(=O)NC3=O)C4=O)CC2)c1 (stereo not drawn) [Example 40, 3-(1-oxo-4-(4-(4-(3-methylphenyl)piperazine-1-)butyl)isoindoline-2-)piperidine-2,6-dione] | < 100 nM |
| O=C1CCC(N2Cc3c(CCCCN4CCN(c5ccc(Cl)cc5)CC4)cccc3C2=O)C(=O)N1 (stereo not drawn) [Example 41, 3-(4-(4-(4-(4-chlorophenyl)piperazine-1-)butyl)-1-oxoisoindoline-2-)piperidine-2,6-dione] | < 100 nM |
| O=C1CCC(N2Cc3c(CCCCN4CCN(c5ccc([N+](=O)[O-])cc5)CC4)cccc3C2=O)C(=O)N1 (stereo not drawn) [Example 42, 3-(4-(4-(4-(4-nitrophenyl)piperazine-1-)butyl)-1-oxoisoindoline-2-)piperidine-2,6-dione] | < 100 nM |
| O=C1CCC(N2Cc3c(CCCCN4CCN(c5ccc(F)cc5F)CC4)cccc3C2=O)C(=O)N1 (stereo not drawn) [Example 43, 3-(4-(4-(4-(2,4-difluorophenyl)piperazine-1-)butyl)-1-oxoisoindoline-2-)piperidine-2,6-dione] | < 100 nM |
| O=C1CCC(N2Cc3c(CCCCN4CCN(c5ccc(Cl)c(Cl)c5)CC4)cccc3C2=O)C(=O)N1 (stereo not drawn) [Example 44, 3-(4-(4-(4-(3,4-dichlorophenyl)piperazine-1-)butyl)-1-oxoisoindoline-2-)piperidine-2,6-dione] | < 100 nM |
| O=C1CCC(N2Cc3c(CCCCN4CCN(c5ccc(C(F)(F)F)cc5)CC4)cccc3C2=O)C(=O)N1 (stereo not drawn) [Example 45, 3-(1-oxo-4-(4-(4-(4-trifluoromethylphenyl)piperazine-1-)butyl)isoindoline-2-)piperidine-2,6-dione] | < 100 nM |
| COc1ccc(N2CCN(CCCCc3cccc4c3CN(C3CCC(=O)NC3=O)C4=O)CC2)cc1 (stereo not drawn) [Example 46, 3-(4-(4-(4-(4-methoxyphenyl)piperazine-1-)butyl)-1-oxoisoindoline-2-)piperidine-2,6-dione] | 100 to 1000 nM |
| O=C1CCC(N2C(=O)c3cccc(OCCCCOc4ccnc5ccccc45)c3C2=O)C(=O)N1 (stereo not drawn) [Example 47, 2-(2,6-dioxopiperidine-3-)-4-(4-(quinoline-4-oxy)butoxy)isoindoline-1,3-dione] | < 100 nM |
| O=C1CCC(N2Cc3c(CCCCN4CCN(c5c(Cl)cccc5Cl)CC4)cccc3C2=O)C(=O)N1 (stereo not drawn) [Example 48, 3-(4-(4-(4-(2,6-dichlorophenyl)piperazine-1-)butyl)-1-oxoisoindoline-2-)piperidine-2,6-dione] | < 100 nM |
| N#CC1(c2ccc(Cl)cc2)CCN(CCCCCc2cccc3c2CN(C2CCC(=O)NC2=O)C3=O)CC1 (stereo not drawn) [Example 49, 4-(4-chlorophenyl)-1-(5-(2-(2,6-dioxopiperidine-3-)-1-oxoisoindoline-4-)pentyl) piperidine-4-carbonitrile] | < 100 nM |
| C[C@]1(N2C(=O)c3cccc(OCCCN4CCC(C#N)(c5ccccc5Cl)CC4)c3C2=O)CCC(=O)NC1=O [Example 50, (S)-4-(2-chlorophenyl)-1-(3-((2-(3-methyl-2,6-dioxopiperidine-3-)-1,3-dioxoisoindoline-4-)oxy)propyl)piperidine-4-carbonitrile] | 1000 to 20000 nM |
| C[C@]1(N2Cc3c(OCCCN4CCC(C#N)(c5cccc(Cl)c5)CC4)cccc3C2=O)CCC(=O)NC1=O [Example 52, (S)-4-(3-chlorophenyl)-1-(3-((2-(3-methyl-2,6-dioxopiperidine-3-)-1-oxoisoindole-4-)oxy)propyl)piperidine-4-carbonitrile] | 1000 to 20000 nM |
| N#CC1(c2ccccc2)CCN(CCCOc2cccc3c2CN(C2CCC(=O)NC2=O)C3=O)CC1 (stereo not drawn) [Example 53, 1-(3-((2-(2,6-dioxopiperidine-3-)-1-oxoisoindoline-4-)oxy)propyl)-4-phenylpiperidine-4-carboxonitrile] | < 100 nM |
| C[C@]1(N2C(=O)c3cccc(OCCCN4CCC(C#N)(c5cccc(Cl)c5)CC4)c3C2=O)CCC(=O)NC1=O [Example 54, (S)-4-(3-chlorophenyl)-1-(3-((2-(3-methyl-2,6-dioxopiperidine-3-)-1,3-dioxoisoindoline-4-)oxy)propyl)piperidine-4-carbonitrile] | 1000 to 20000 nM |
| N#CC1(c2ccccc2Cl)CCN(CCCOc2cccc3c2CN(C2CCC(=O)NC2=O)C3=O)CC1 (stereo not drawn) [Example 55, 4-(2-chlorophenyl)-1-(3-((2-(2,6-dioxopiperidine-3-)-1-oxoisoindoline-4-)oxy)propyl)piperidine-4-carbonitrile] | < 100 nM |
| C[C@]1(N2Cc3c(OCCCN4CCC(C#N)(c5ccccc5OC(F)(F)F)CC4)cccc3C2=O)CCC(=O)NC1=O [Example 56, (S)-1-(3-((2-(3-methyl-2,6-dioxopiperidine-3-)-1-oxoisoindoline-4-)oxy)propyl)-4-(2-(trifluoromethoxy)phenyl)piperidine-4-carbonitrile] | 1000 to 20000 nM |
| N#CC1(c2cccc(Cl)c2)CCN(CCCOc2cccc3c2CN(C2CCC(=O)NC2=O)C3=O)CC1 (stereo not drawn) [Example 57, 4-(3-chlorophenyl)-1-(3-((2-(2,6-dioxopiperidine-3-)-1-oxoisoindoline-4-)oxy)propyl)piperidine-4-carbonitrile] | < 100 nM |
| C[C@]1(N2C(=O)c3cccc(OCCCN4CCC(C#N)(c5ccccc5OC(F)(F)F)CC4)c3C2=O)CCC(=O)NC1=O [Example 58, (S)-1-(3-((2-(3-methyl-2,6-dioxopiperidine-3-)-1,3-dioxoisoindoline-4-)oxy)propyl)-4-(2-(trifluoromethoxy)phenyl)piperidine-4-carbonitrile] | 1000 to 20000 nM |
| N#CC1(c2ccc(Cl)cc2)CCN(CCCOc2cccc3c2CN(C2CCC(=O)NC2=O)C3=O)CC1 (stereo not drawn) [Example 59, 4-(4-chlorophenyl)-1-(3-((2-(2,6-dioxopiperidine-3-)-1-oxoisoindoline-4-)oxy)propyl)piperidine-4-carbonitrile] | < 100 nM |
| C[C@]1(N2Cc3c(OCCCN4CCC(C#N)(c5cccc(OC(F)(F)F)c5)CC4)cccc3C2=O)CCC(=O)NC1=O [Example 60, (S)-1-(3-((2-(3-methyl-2,6-dioxopiperidine-3-)-1-oxoisoindoline-4-)oxy)propyl)-4-(3-(trifluoromethoxy)phenyl)piperidine-4-carbonitrile] | 1000 to 20000 nM |
| N#CC1(c2ccccc2F)CCN(CCCOc2cccc3c2CN(C2CCC(=O)NC2=O)C3=O)CC1 (stereo not drawn) [Example 61, 1-(3-((2-(2,6-dioxopiperidine-3-)-1-oxoisoindoline-4-)oxy)propyl)-4-(2-fluorophenyl)piperidine-4-carbonitrile] | 100 to 1000 nM |
| C[C@]1(N2C(=O)c3cccc(OCCCN4CCC(C#N)(c5cccc(OC(F)(F)F)c5)CC4)c3C2=O)CCC(=O)NC1=O [Example 62, (S)-1-(3-((2-(3-methyl-2,6-dioxopiperidine-3-)-1,3-dioxoisoindoline-4-)oxy)propyl)-4-(3-(trifluoromethoxy)phenyl)piperidine-4-carbonitrile] | 1000 to 20000 nM |
| N#CC1(c2cccc(F)c2)CCN(CCCOc2cccc3c2CN(C2CCC(=O)NC2=O)C3=O)CC1 (stereo not drawn) [Example 63, 1-(3-((2-(2,6-dioxopiperidine-3-)-1-oxoisoindoline-4-)oxy)propyl)-4-(3-fluorophenyl)piperidine-4-carbonitrile] | 100 to 1000 nM |
| N#CC1(c2ccccc2Cl)CCN(CCOc2cccc3c2CN(C2CCC(=O)NC2=O)C3=O)CC1 (stereo not drawn) [Example 64, 4-(2-chlorophenyl)-1-(2-((2-(2,6-dioxopiperidine-3-)-1-oxoisoindoline-4-)oxy)ethyl) piperidine-4-carbonitrile] | 100 to 1000 nM |
| N#CC1(c2ccc(F)cc2)CCN(CCCOc2cccc3c2CN(C2CCC(=O)NC2=O)C3=O)CC1 (stereo not drawn) [Example 65, 1-(3-((2-(2,6-dioxopiperidine-3-)-1-oxoisoindoline-4-)oxy)propyl)-4-(4-fluorophenyl)piperidine-4-carbonitrile] | 100 to 1000 nM |
| N#CC1(c2cccc(OC(F)(F)F)c2)CCN(CCOc2cccc3c2CN(C2CCC(=O)NC2=O)C3=O)CC1 (stereo not drawn) [Example 66, 1-(2-((2-(2,6-dioxopiperidine-3-)-1-oxoisoindoline-4-)oxy)ethyl)-4-(3-(trifluoromethoxy)phenyl)piperidine-4-carbonitrile] | 100 to 1000 nM |

From US12459921B2, “Isoindoline compound, preparation method, pharmaceutical composition and use thereof” (SHANGHAI INSTITUTE OF MATERIA MEDICA, CHINESE ACADEMY OF …, priority 2018, dated 2025)
